Our source for the IC50 and inhibition values is patent US20240083853A1, “HSD17B13 INHIBITORS AND USES THEREOF” (FL2022-001, Inc., priority 2020, published 2024).

In general, IC50 refers to the concentration needed to halve the response being measured.

The experiment addresses T1, Recombinant human HSD17B13 enzyme (Homo sapiens, UniProt Q7Z5P4).
T1 sequence (Q7Z5P4 20-300): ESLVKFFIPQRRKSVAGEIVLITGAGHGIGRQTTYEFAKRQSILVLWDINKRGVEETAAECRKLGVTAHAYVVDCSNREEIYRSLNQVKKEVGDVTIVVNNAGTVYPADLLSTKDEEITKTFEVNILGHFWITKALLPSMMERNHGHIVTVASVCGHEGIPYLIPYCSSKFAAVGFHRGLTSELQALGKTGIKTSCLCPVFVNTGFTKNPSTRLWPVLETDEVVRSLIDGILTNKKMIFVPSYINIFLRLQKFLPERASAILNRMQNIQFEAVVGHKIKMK
The experiment in a line: HSD17b13 NAD(P)H-Glo biochemical assay. Particulars: for IC50: 50 uM estradiol, 1 mM NAD+, NAD(P)H-Glo luminescence, read-out: HSD17β13 IC50; for inhibition at 10 µM: 3 h, at 10 uM compound, read-out: HSD17β13 % at 10 uM. Summed up:
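Luminescent NAD(P)H-Glo read-out, taken after 1 hour at RT, measured cofactor reduction. Substrate and cofactor were estradiol at 50 uM and NAD+ at 1 mM final, reacted with the recombinant human enzyme for 3 hours at 37° C in 20 mM Tris pH7.4, 0.002% Tween-20, 0.02% BSA. Compound was pre-incubated with enzyme for 20 minutes at RT.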

For the molecule `CS(=O)(=O)C1CN(c2ccc(-n3ncc4cc(F)c(O)c(F)c43)cc2)C1` [Compound 22.1, 5,7-Difluoro-1-(4-(3-(methylsulfonyl)azetidin-1-yl)phenyl)-1H-indazol-6-ol], the IC50 fell in the range of 0.1 to 1 µM.

For `CC1(C)CN(S(C)(=O)=O)CCN1c1ccc(-n2ncc3cc(F)c(O)c(F)c32)cc1` [Compound 23.6, 1-(4-(2,2-Dimethyl-4-(methylsulfonyl)piperazin-1-yl)phenyl)-5,7-difluoro-1H-indazol-6-ol], the concentration for half-maximal inhibition (IC50) was in the range of 0.1 to 1 µM.

Regarding `CS(=O)(=O)c1ccc(-c2ccc(-n3ncc4cc(F)c(O)c(F)c43)cc2)cc1` [Compound 13.40, 5,7-Difluoro-1-(4′-(methylsulfonyl)-[1,1′-biphenyl]-4-yl)-1H-indazol-6-ol], the IC50 lay within 0.1 to 1 µM.

In the case of `CN1CCN(c2ccc(-n3ncc4cc(F)c(O)c(F)c43)cc2)CC1` [Compound 24.1, 5,7-Difluoro-1-(4-(4-methylpiperazin-1-yl)phenyl)-1H-indazol-6-ol], the IC50 lay within 0.1 to 1 µM.

Take `Oc1c(F)cc2cnn(-c3ccc(C4CCOCC4)cc3)c2c1F` [Compound 27.6, 5,7-Difluoro-1-(4-(tetrahydro-2H-pyran-4-yl)phenyl)-1H-indazol-6-ol]: the IC50 was less than 0.1 µM.

Turning to `Oc1cccc(-c2ccc(-n3ncc4c(F)cc(O)cc43)cc2)c1` [Compound 2.8, 4-Fluoro-1-(3′-hydroxy-[1,1′-biphenyl]-4-yl)-1H-indazol-6-ol], the IC50 lay within 1 to 30 µM.

In the case of `Oc1cccc(-c2ccc(-n3ncc4c(F)c(F)c(O)cc43)cc2)c1` [Compound 8, 4,5-Difluoro-1-(3′-hydroxy-[1,1′-biphenyl]-4-yl)-1H-indazol-6-ol], the IC50 was in the range of 0.1 to 1 µM.

Regarding `Oc1c(F)cc2cnn(-c3ccc(N4CCC5(CC4)CC5)cc3)c2c1F` [Compound 23.23, 1-(4-(6-Azaspiro[2.5]octan-6-yl)phenyl)-5,7-difluoro-1H-indazol-6-ol], the IC50 is less than 0.1 µM.

In the case of `Oc1c(F)cc2cnn(-c3ccc(C4=CCCCC4)cc3)c2c1F` [Compound 27.1, 5,7-Difluoro-1-(2′,3′,4′,5′-tetrahydro-[1,1′-biphenyl]-4-yl)-1H-indazol-6-ol], the IC50 is less than 0.1 µM.

As to `Oc1c(F)cc2nnn(-c3cnc(N4CC5(CCOCC5)C4)nc3)c2c1F` [Compound 42.1, 1-(2-(7-Oxa-2-azaspiro[3.5]nonan-2-yl)pyrimidin-5-yl)-5,7-difluoro-1H-benzo[d][1,2,3]triazol-6-ol], the concentration for half-maximal inhibition (IC50) is 1 to 30 µM.

Regarding `CS(=O)(=O)N1CCN(c2ccc(-n3ncc4c(Cl)c(F)c(O)cc43)cc2)CC1` [Compound 5.1, 4-Chloro-5-fluoro-1-(4-(4-(methylsulfonyl)piperazin-1-yl)phenyl)-1H-indazol-6-ol], the half-inhibitory concentration (IC50) lay within 0.1 to 1 µM.

With `Oc1cc2c(cnn2-c2ccc(-c3ccc(Cl)cc3)cc2)cc1F` [Compound 13.8, 1-(4′-Chloro-[1,1′-biphenyl]-4-yl)-5-fluoro-1H-indazol-6-ol], the IC50 lay within 0.1 to 1 µM.

As to `[O-][S+]1CCC2(CC1)CN(c1ccc(-n3ncc4cc(F)c(O)c(F)c43)cc1)C2` [Compound 32.1, 2-(4-(5,7-Difluoro-6-hydroxy-1H-indazol-1-yl)phenyl)-7-thia-2-azaspiro[3.5]nonane 7-oxide], the 50% inhibitory concentration (IC50) was in the range of 0.1 to 1 µM.

In the case of `CC(C)C1CN(c2ccc(-n3ncc4cc(F)c(O)c(F)c43)cc2)C1` [Compound 24.3, 5,7-Difluoro-1-(4-(3-isopropylazetidin-1-yl)phenyl)-1H-indazol-6-ol], the IC50 was less than 0.1 µM.

For the molecule `OCc1ccc(-c2ccc(-n3ncc4cc(F)c(O)cc43)cc2)cc1` [Compound 13.23, 5-Fluoro-1-(4′-(hydroxymethyl)-[1,1′-biphenyl]-4-yl)-1H-indazol-6-ol], the IC50 was in the range of 0.1 to 1 µM.

Take `COC1(C)CCN(c2ccc(-n3ncc4cc(F)c(O)c(F)c43)cc2)CC1` [Compound 20.20, 5,7-Difluoro-1-(4-(4-methoxy-4-methylpiperidin-1-yl)phenyl)-1H-indazol-6-ol]: the IC50 was less than 0.1 µM.

On to `CS(=O)(=O)N1CCN(c2cnc(-n3nnc4cc(F)c(O)c(F)c43)nc2)CC1` [Compound 26.22, 5,7-Difluoro-1-(5-(4-(methylsulfonyl)piperazin-1-yl)pyrimidin-2-yl)-1H-benzo[d][1,2,3]triazol-6-ol], for which the inhibition at 10 µM was determined as 45%.

Regarding `Oc1c(F)cc2cnn(-c3ccc(N4CCC(O)CC4)cc3)c2c1F` [Compound 23.1, 5,7-Difluoro-1-(4-(4-hydroxypiperidin-1-yl)phenyl)-1H-indazol-6-ol], the IC50 was in the range of 0.1 to 1 µM.

Turning to `Cc1ccc(-c2ccc(-n3ncc4cc(F)c(O)cc43)cc2)cc1` [Compound 13.11, 5-Fluoro-1-(4′-methyl-[1,1′-biphenyl]-4-yl)-1H-indazol-6-ol], the IC50 was 0.1 to 1 µM.

Turning to `Oc1cccc(-c2ccc(-n3ncc4c(F)c(F)c(O)c(F)c43)cc2)c1` [Compound 15.4, 4,5,7-Trifluoro-1-(3′-hydroxy-[1,1′-biphenyl]-4-yl)-1H-indazol-6-ol], the IC50 was in the range of 0.1 to 1 µM.

Consider `Oc1cc2c(nnn2-c2ccc(N3CC4(CCOCC4)C3)cc2)c(C(F)(F)F)c1F` [Compound 41, 1-(4-(7-Oxa-2-azaspiro[3.5]nonan-2-yl)phenyl)-5-fluoro-4-(trifluoromethyl)-1H-benzo[d][1,2,3]triazol-6-ol], for which the IC50 was in the range of 0.1 to 1 µM.

As for `CC1(C)CCN(c2ccc(-n3c(=O)sc4cc(F)c(O)c(F)c43)cc2)CC1` [Compound 7.3, 3-(4-(4,4-Dimethylpiperidin-1-yl)phenyl)-4,6-difluoro-5-hydroxybenzo[d]thiazol-2(3H)-one], the IC50 was in the range of 0.1 to 1 µM.

For the molecule `CS(=O)(=O)C1CN(c2ccc(-n3nnc4cc(F)c(O)c(F)c43)cc2)C1` [Compound 20.14, 5,7-Difluoro-1-(4-(3-(methylsulfonyl)azetidin-1-yl)phenyl)-1H-benzo[d][1,2,3]triazol-6-ol], the IC50 lay within 0.1 to 1 µM.

For the molecule `N#Cc1ccc(-c2ccc(-n3ncc4cc(F)c(O)cc43)cc2)cc1` [Compound 13.18, 4′-(5-Fluoro-6-hydroxy-1H-indazol-1-yl)-[1,1′-biphenyl]-4-carbonitrile], the IC50 is less than 0.1 µM.

`CS(=O)(=O)c1cccc(-c2ccc(-n3ncc4cc(F)c(O)cc43)cc2)c1` [Compound 13.25, 5-Fluoro-1-(3′-(methylsulfonyl)-[1,1′-biphenyl]-4-yl)-1H-indazol-6-ol]: the half-inhibitory concentration (IC50) lay within 0.1 to 1 µM.

Regarding `Cc1c(O)c(F)cc2cnn(-c3ccc(N4CCN(S(C)(=O)=O)CC4)cc3)c12` [Compound 24.12, 5-Fluoro-7-methyl-1-(4-(4-(methylsulfonyl)piperazin-1-yl)phenyl)-1H-indazol-6-ol], the inhibition at 10 µM was found to be 35%.

Consider `CS(=O)(=O)N1CCN(c2ccc(-n3nnc4cc(F)c(O)c(F)c43)nc2)CC1` [Compound 26.16, 5,7-Difluoro-1-(5-(4-(methylsulfonyl)piperazin-1-yl)pyridin-2-yl)-1H-benzo[d][1,2,3]triazol-6-ol], for which the half-inhibitory concentration (IC50) was in the range of 0.1 to 1 µM.

Regarding `Oc1cc2c(cnn2-c2ccc(-c3ccccn3)cc2)cc1F` [Compound 13.13, 5-Fluoro-1-(4-(pyridin-2-yl)phenyl)-1H-indazol-6-ol], the IC50 lay within 1 to 30 µM.

Turning to `CS(=O)(=O)N1CC(c2ccc(-n3ncc4cc(F)c(O)c(F)c43)cc2)C1` [Compound 30, 5,7-Difluoro-1-(4-(1-(methylsulfonyl)azetidin-3-yl)phenyl)-1H-indazol-6-ol], the IC50 was 0.1 to 1 µM.

With `Oc1c(F)cc2cnn(-c3ccc(-c4cc[nH]n4)cc3)c2c1F` [Compound 14.2, 1-(4-(1H-Pyrazol-3-yl)phenyl)-5,7-difluoro-1H-indazol-6-ol], the IC50 was 0.1 to 1 µM.

Take `O=C(O)c1ccc(-c2ccc(-n3ncc4cc(F)c(O)cc43)cc2)cc1` [Compound 13.30, 4′-(5-Fluoro-6-hydroxy-1H-indazol-1-yl)-[1,1′-biphenyl]-4-carboxylic acid]: the half-maximal inhibitory concentration (IC50) lay within 1 to 30 µM.

Turning to `CC1(C)CCN(c2ccc(-n3nnc4c(C(F)(F)F)c(F)c(O)cc43)cc2)CC1` [Compound 41.1, 1-(4-(4,4-Dimethylpiperidin-1-yl)phenyl)-5-fluoro-4-(trifluoromethyl)-1H-benzo[d][1,2,3]triazol-6-ol], the IC50 was in the range of 0.1 to 1 µM.

For the molecule `CC1(C)CCCN(c2ccc(-n3ncc4cc(F)c(O)c(F)c43)cc2)C1` [Compound 23.19, 1-(4-(3,3-Dimethylpiperidin-1-yl)phenyl)-5,7-difluoro-1H-indazol-6-ol], the IC50 is less than 0.1 µM.

Regarding `CC1(C)CC=C(c2ccc(-n3ncc4cc(F)c(O)c(F)c43)cc2)CC1` [Compound 27.2, 1-(4′,4′-Dimethyl-2′,3′,4′,5′-tetrahydro-[1,1′-biphenyl]-4-yl)-5,7-difluoro-1H-indazol-6-ol], the half-inhibitory concentration (IC50) was less than 0.1 µM.

Take `Oc1c(F)cc2ncn(-c3ccc(N4CC5(CCOCC5)C4)cc3)c2c1F` [Compound 20.11, 1-(4-(7-Oxa-2-azaspiro[3.5]nonan-2-yl)phenyl)-5,7-difluoro-1H-benzo[d]imidazol-6-ol]: the IC50 lay in the range of 0.1 to 1 µM.

With `Oc1c(F)cc2nnn(-c3ccc(N4CC5(CCOCC5)C4)nc3)c2c1F` [Compound 26.12, 1-(6-(7-Oxa-2-azaspiro[3.5]nonan-2-yl)pyridin-3-yl)-5,7-difluoro-1H-benzo[d][1,2,3]triazol-6-ol], the concentration for half-maximal inhibition (IC50) lay in the range of 0.1 to 1 µM.

Take `Oc1cc2c(cnn2-c2ccc(-c3ccccc3)cc2)cc1F` [Compound 2.2, 1-([1,1′-Biphenyl]-4-yl)-5-fluoro-1H-indazol-6-ol]: the IC50 was 0.1 to 1 µM.

Turning to `Oc1c(F)cc2cnn(-c3ccc(-c4ccc(Cl)cc4)cn3)c2c1F` [Compound 18.3, 1-(5-(4-Chlorophenyl)pyridin-2-yl)-5,7-difluoro-1H-indazol-6-ol], the IC50 is less than 0.1 µM.
